{
  "source": "ChEMBL document CHEMBL1154628",
  "about": "“Discovery and optimization of substituted 1-(1-phenyl-1H-pyrazol-3-yl)methanamines as potent and efficacious type II calcimimetics” (J Med Chem, 2009)",
  "key": {"[1]": {"biological_target": "T1, Extracellular calcium-sensing receptor (Homo sapiens, UniProt P41180)", "T1 sequence (P41180 whole entry)": "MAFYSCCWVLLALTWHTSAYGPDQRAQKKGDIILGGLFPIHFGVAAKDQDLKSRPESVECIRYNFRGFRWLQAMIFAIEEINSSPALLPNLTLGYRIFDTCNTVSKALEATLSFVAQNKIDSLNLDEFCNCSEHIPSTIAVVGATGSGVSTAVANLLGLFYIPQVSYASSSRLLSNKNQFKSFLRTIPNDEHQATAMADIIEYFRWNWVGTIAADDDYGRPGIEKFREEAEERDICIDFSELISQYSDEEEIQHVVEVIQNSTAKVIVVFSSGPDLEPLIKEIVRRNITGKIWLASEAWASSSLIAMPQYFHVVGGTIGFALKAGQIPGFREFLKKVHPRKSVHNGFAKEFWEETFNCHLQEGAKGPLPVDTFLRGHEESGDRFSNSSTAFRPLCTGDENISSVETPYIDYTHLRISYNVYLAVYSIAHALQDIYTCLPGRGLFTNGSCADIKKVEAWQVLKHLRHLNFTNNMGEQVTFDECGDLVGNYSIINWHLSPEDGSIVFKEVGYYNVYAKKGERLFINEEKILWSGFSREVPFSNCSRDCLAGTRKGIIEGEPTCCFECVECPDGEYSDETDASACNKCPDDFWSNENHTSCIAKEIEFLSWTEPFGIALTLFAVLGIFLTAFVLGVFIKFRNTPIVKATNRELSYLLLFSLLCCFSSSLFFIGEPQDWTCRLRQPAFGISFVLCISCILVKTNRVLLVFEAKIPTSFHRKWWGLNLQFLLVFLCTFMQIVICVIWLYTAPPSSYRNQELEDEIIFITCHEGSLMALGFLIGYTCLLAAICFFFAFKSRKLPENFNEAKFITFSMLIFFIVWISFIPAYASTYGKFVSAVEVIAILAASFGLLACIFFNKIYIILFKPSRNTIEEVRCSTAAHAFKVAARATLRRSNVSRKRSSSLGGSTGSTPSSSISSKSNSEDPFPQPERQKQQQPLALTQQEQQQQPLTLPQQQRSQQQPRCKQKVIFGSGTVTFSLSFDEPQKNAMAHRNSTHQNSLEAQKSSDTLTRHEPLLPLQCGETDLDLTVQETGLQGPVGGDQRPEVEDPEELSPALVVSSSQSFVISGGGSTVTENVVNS", "experiment": "Activity at human CaSR expressed in HEK293 cells assessed as calcium release by FLIPR assay", "assay_type": "functional, cell-based"}, "Rattus norvegicus [2]": {"tested_on": "Rattus norvegicus", "experiment": "Oral bioavailability in Sprague-Dawley rat at 2 mg/kg", "assay_type": "ADME, organism-based", "settings": "in vivo"}, "Rattus norvegicus [3]": {"tested_on": "Rattus norvegicus", "experiment": "AUC in Sprague-Dawley rat at 2 mg/kg, po", "assay_type": "ADME, organism-based, Plasma", "design": "dose 2 mg/kg, route oral", "settings": "in vivo"}, "Rattus norvegicus [4]": {"tested_on": "Rattus norvegicus", "experiment": "Cmax in Sprague-Dawley rat at 2 mg/kg, po", "assay_type": "ADME, organism-based", "design": "dose 2 mg/kg, route oral", "settings": "in vivo"}, "[5]": {"experiment": "Volume of distribution at steady state in Sprague-Dawley rat at 0.5 mg/kg, iv", "assay_type": "ADME, organism-based", "design": "dose 0.5 mg/kg, route intravenous", "settings": "in vivo, read-out: Vdss"}, "Rattus norvegicus [6]": {"tested_on": "Rattus norvegicus", "experiment": "Inhibition of hyperparathyroidism in Sprague-Dawley rat pharmacodynamic model assessed as decrease in PTH levels at 30 mg/kg, po", "assay_type": "functional, organism-based", "design": "dose 30 mg/kg", "settings": "Thyroid gland"}, "[7]": {"experiment": "Mean residence time in Sprague-Dawley rat at 0.5 mg/kg, iv", "assay_type": "ADME, organism-based", "design": "dose 0.5 mg/kg, route intravenous", "settings": "in vivo"}, "Rattus norvegicus [8]": {"tested_on": "Rattus norvegicus", "experiment": "Clearance in Sprague-Dawley rat at 0.5 mg/kg, iv", "assay_type": "ADME, organism-based", "design": "dose 0.5 mg/kg, route intravenous", "settings": "in vivo"}, "Rattus norvegicus [9]": {"tested_on": "Rattus norvegicus", "experiment": "Inhibition of hyperparathyroidism in Sprague-Dawley rat pharmacodynamic model assessed as PTH levels at 3 mg/kg, po", "assay_type": "functional"}},
  "note": "pEC50: −log10 of the molar value. The source made the active and inactive calls. No cut-off for these calls is given here.",
  "data": [
    {"smiles": "CC(C)[C@@H](N[C@H](C)c1ccccc1)c1ccn(-c2ccc(C(F)(F)F)cc2)n1", "values": [
      {"measurement": "pEC50", "setting": "[1]", "result": 5.63}
    ]},
    {"smiles": "COc1cccc([C@@H](C)NCCCc2ccccc2Cl)c1", "note": "[TECALCET]", "values": [
      {"measurement": "pEC50", "setting": "[1]", "result": 6.71},
      {"measurement": "F", "setting": "Rattus norvegicus [2]", "result": 5, "unit": "%"},
      {"measurement": "AUC", "setting": "Rattus norvegicus [3]", "result": 22, "unit": "ng·h/mL"},
      {"measurement": "Cmax", "setting": "Rattus norvegicus [4]", "result": 4.2, "unit": "ng/mL"},
      {"measurement": "Vd", "setting": "[5]", "result": 6.8, "unit": "L/kg"},
      {"measurement": "Activity", "setting": "Rattus norvegicus [6]", "result": "Active"},
      {"measurement": "MRT", "setting": "[7]", "result": 1.74, "unit": "h"},
      {"measurement": "CL", "setting": "Rattus norvegicus [8]", "result": 65, "unit": "mL/min/kg"}
    ]},
    {"smiles": "C[C@@H](N[C@H](C)c1ccn(-c2ccc(C(F)(F)F)cc2)n1)c1cccc(Cl)c1", "values": [
      {"measurement": "pEC50", "setting": "[1]", "result": 7.04}
    ]},
    {"smiles": "COc1cc([C@@H](C)N[C@H](C)c2cccc(Cl)c2)nn1-c1ccc(-c2nnn[nH]2)cc1", "values": [
      {"measurement": "pEC50", "setting": "[1]", "result": "< 5.30"}
    ]},
    {"smiles": "COc1cc([C@@H](C)N[C@H](C)c2ccccc2)nn1-c1ccc(C(F)(F)F)cc1", "values": [
      {"measurement": "pEC50", "setting": "[1]", "result": 7.15}
    ]},
    {"smiles": "COc1cc([C@@H](C)N[C@H](C)c2cccc(Cl)c2)nn1-c1ccc(C(F)(F)F)cc1", "values": [
      {"measurement": "pEC50", "setting": "[1]", "result": 7.39}
    ]},
    {"smiles": "C[C@@H](NCc1nc(-c2ccccc2)co1)c1ccccc1", "values": [
      {"measurement": "pEC50", "setting": "[1]", "result": "< 5.30"}
    ]},
    {"smiles": "C[C@@H](NCc1nc(-c2ccccc2)c[nH]1)c1ccccc1", "values": [
      {"measurement": "pEC50", "setting": "[1]", "result": "< 5.30"}
    ]},
    {"smiles": "CC[C@@H](N[C@H](C)c1ccccc1)c1ccn(-c2ccc(C(F)(F)F)cc2)n1", "values": [
      {"measurement": "pEC50", "setting": "[1]", "result": 5.93}
    ]},
    {"smiles": "C[C@@H](NCc1ccn(-c2ccccc2)n1)c1ccccc1", "values": [
      {"measurement": "pEC50", "setting": "[1]", "result": 5.80}
    ]},
    {"smiles": "COc1cc([C@@H](C)N[C@H](C)c2cccc(Cl)c2)nn1-c1ccc(C(=O)O)cc1", "values": [
      {"measurement": "pEC50", "setting": "[1]", "result": 5.72}
    ]},
    {"smiles": "C[C@@H](N[C@H](C)c1ccn(-c2ccc(C(F)(F)F)cc2)n1)c1cccc(F)c1", "values": [
      {"measurement": "pEC50", "setting": "[1]", "result": 6.83}
    ]},
    {"smiles": "COc1cc([C@@H](C)N[C@H](C)c2cccc(Cl)c2)nn1-c1ccc(Br)cc1", "values": [
      {"measurement": "pEC50", "setting": "[1]", "result": 7.64},
      {"measurement": "Activity", "setting": "Rattus norvegicus [9]", "result": "<3", "unit": "pg/mL"},
      {"measurement": "F", "setting": "Rattus norvegicus [2]", "result": 24, "unit": "%"},
      {"measurement": "AUC", "setting": "Rattus norvegicus [3]", "result": 444, "unit": "ng·h/mL"},
      {"measurement": "Vd", "setting": "[5]", "result": 7, "unit": "L/kg"},
      {"measurement": "MRT", "setting": "[7]", "result": 11.8, "unit": "h"},
      {"measurement": "CL", "setting": "Rattus norvegicus [8]", "result": 21.7, "unit": "mL/min/kg"}
    ]},
    {"smiles": "COc1cc([C@@H](C)N[C@H](C)c2cccc(Cl)c2)nn1-c1cccc(Cl)c1", "values": [
      {"measurement": "pEC50", "setting": "[1]", "result": 7.24}
    ]},
    {"smiles": "C[C@@H](NCc1cnc(-c2ccccc2)s1)c1ccccc1", "values": [
      {"measurement": "pEC50", "setting": "[1]", "result": "< 5.30"}
    ]},
    {"smiles": "C[C@@H](NCc1nc(-c2ccccc2)cn1C)c1ccccc1", "values": [
      {"measurement": "pEC50", "setting": "[1]", "result": "< 5.30"}
    ]},
    {"smiles": "C[C@@H](N[C@H](C)c1ccn(-c2ccc(C(F)(F)F)cc2)n1)c1ccccc1", "values": [
      {"measurement": "pEC50", "setting": "[1]", "result": 6.63}
    ]},
    {"smiles": "C[C@@H](NCc1nc(-c2ccccc2)cs1)c1ccccc1", "values": [
      {"measurement": "pEC50", "setting": "[1]", "result": "< 5.30"}
    ]}
  ]
}
